Measurements as given in patent US20050222271A1, “Novel amorphous form of memantine hydrochloride” (priority 2004, published 2005).

Assay: Solubility (complete dissolution) of memantine hydrochloride in solvents
Assay type: physicochemical
Method: In particular, memantine hydrochloride is soluble in water, allowing the complete dissolution of memantine hydrochloride at room temperature at a concentration of 50 mg per milliliter (ml). The use of a relatively concentrated solution, e.g. about 50 mg per ml is therefore preferred.
In a first step of the distillation process, memantine hydrochloride is preferably dissolved in an […] solvent; more preferably dissolved in a straight or branched chain C1-C4 alcohol solvent, and most preferably dissolved in methanol or ethanol to form a solution. Memantine hydrochloride is soluble in methanol or ethanol, allowing the complete dissolution of memantine hydrochloride at ambient temperature.
(§1) In particular, memantine hydrochloride is soluble in methanol, allowing the complete dissolution of memantine hydrochloride in methanol at ambient temperature with a concentration of 30 mg per milliliter (ml). The use of a relatively concentrated solution, e.g. about 30 mg per ml is therefore preferred for methanol.
as §1, with “ethanol,” for “methanol,”, “ethanol” for “methanol”, “20” for “30”, “ml.” for “milliliter (ml).”, “ethanol.” for “methanol.”

## CC12CC3CC(C)(C1)CC(N)(C3)C2.Cl [memantine hydrochloride, 1-amino-3,5-dimethyltricyclo[3,3,1,1^3,7]decane hydrochloride]
ethanol, ambient temperature
  solubility in ethanol (complete dissolution with a concentration of): ≥ 20 mg per ml
methanol, ambient temperature
  solubility in methanol (complete dissolution with a concentration of): ≥ 30 mg per milliliter (ml)
water, room temperature
  solubility in water (complete dissolution at a concentration of): ≥ 50 mg per milliliter (ml)
